Biological target: IDH1 R132H (Homo sapiens (Human), UniProt O75874, R132H)
Assay: In vitro assay for IDH1m (R132H) inhibitors, NADPH depletion with resazurin/resorufin detection
Assay type: biochemical
Conditions: IDH1 R132H enzyme, 50 minutes at room temperature; read-out: IDH R132H IC50
Protocol: Assays were conducted in a volume of 76 μl assay buffer (150 mM NaCl, 10 mM MgCl2, 20 mM Tris pH 7.5, 0.03% bovine serum albumin) as follows in a standard 384-well plate: To 25 ul of substrate mix (8 uM NADPH, 2 mM aKG), 1 μl of test compound was added in DMSO. The plate was centrifuged briefly, and then 25 μl of enzyme mix was added (0.2 μg/ml IDH1 R132H) followed by a brief centrifugation and shake at 100 RPM. The reaction was incubated for 50 minutes at room temperature, then 25 μl of detection mix (30 μM resazurin, […]) was added and the mixture further incubated for 5 minutes at room temperature. The conversion of resazurin to resorufin was detected by fluorescent spectroscopy at Ex544 Em590 c/o 590.
Representative compounds of formula (I) set forth in Tables 1 and 2 were tested in this assay and the results are set forth below in Table 4.

Chain of IDH1 R132H (O75874 whole entry R132H): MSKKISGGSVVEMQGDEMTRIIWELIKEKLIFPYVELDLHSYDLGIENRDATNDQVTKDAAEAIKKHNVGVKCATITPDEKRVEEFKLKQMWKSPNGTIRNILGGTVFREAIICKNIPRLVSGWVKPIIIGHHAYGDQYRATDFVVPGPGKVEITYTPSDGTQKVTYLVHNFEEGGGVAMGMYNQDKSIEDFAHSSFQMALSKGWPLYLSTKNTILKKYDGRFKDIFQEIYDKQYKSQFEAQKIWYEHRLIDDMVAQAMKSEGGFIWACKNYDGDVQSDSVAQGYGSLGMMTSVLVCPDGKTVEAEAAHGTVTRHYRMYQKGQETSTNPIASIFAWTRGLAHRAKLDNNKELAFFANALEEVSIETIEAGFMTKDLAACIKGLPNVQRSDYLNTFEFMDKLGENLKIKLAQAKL

IC50: 1 to 10 µM
Compound: COc1cccc(NC(=O)Nc2ccc(C)c(S(=O)(=O)Nc3ccc(Cl)cc3)c2)c1 [Compound 266]
